{"source": "patent US20240174697A1", "about": "“PH-ACTIVABLE FLUORESCENT PROBES FOR TARGETING CELL ORGANELLES” (Purdue Research Foundation, priority 2021, published 2024)", "key": {"[1]": {"test": "Absorption and fluorescence spectra at different pH solutions, pKa", "type": "physicochemical", "settings": "for pH at which high fluorescence is shown: pH buffer solutions; for emission maximum: excitation 480 nm; for emission maximum / absorption maximum: pH solutions of phosphate buffer, 1% DMSO; for pKa: PBS buffer at varying pH, 1% (v/v) DMSO, probe 10 μM, room temperature", "protocol": "Spectrum recorded at room temperature in PBS buffer at varying pH with 1% (v/v) of DMSO, in all cases probe concentration=10 μM.\nNext, we investigated the absorption and fluorescent properties of LysoShine 1, LysoShine 2, and MitoShine (FIG. 2). The LysoShine 1 in different pH solutions of phosphate buffer (1% DMSO in 1M PBS) has an absorption centered around 500 nm and emission maximum at 505 nm with 480 nm excitation. […] We tested the mitochondrial targeting property of MitoShine (max. absorption 505 nm, max. emission 535 nm, excitation 480 nm). […] We also tested the photophysical property of the important synthetic intermediate compound 10 (absorption maximum 505 nm, max, emission 510 nm at excitation 480 nm)."}, "[2]": {"test": "Solubility in aqueous medium / pH solutions", "type": "physicochemical", "settings": "for solubility upon addition of pH solutions: final DMSO concentration 1%"}, "BV2 microglia [3]": {"tested_on": "BV2 microglia", "test": "LDH cytotoxicity assay on BV2 microglia", "type": "cell-based, mouse", "settings": "for cytotoxicity (LDH release): 2 hour, any tested doses (1, 5, 10 μM), BV2", "protocol": "The dried fluorescent probes powders were resuspended in cell grade DMSO to prepare 5 mM stock solutions. This stock was used to make a 1, 5, or 10 μM dilution of the probe in cell culture media. The diluted probe solutions were filtered through 0.22 µm filters before adding to the cells.\nThe cytotoxicity of the fluorescent probes was determined using the Invitrogen™ CyQUANT™ LDH Cytotoxicity Assay kit which measures the release of Lactate dehydrogenase (LDH) from the dead and dying cells. The assay was performed per the manufacturer's protocol. Briefly, BV2 cells (5000 cells/100 μL/well) were seeded in a 96 well plate and cultured for 24 hours at 37° C. in a 5% CO2 incubator. After 24 hours, the media was removed, and the cells were treated with 1, 5, or 10 μM of the probes for 2 or 24 hours of incubation. Three additional wells were treated with the given lysis buffer for 45 minutes (positive control). After the corresponding incubation period, the total LDH release was measured using a fluorescent plate reader. The cells without any probe treatment correspond to spontaneous LDH release and were taken as negative control and the cells treated with the lysis buffer correspond to maximum LDH release. The percentage cytotoxicity of the probes was determined as follows: […]"}, "BV2 microglia [4]": {"tested_on": "BV2 microglia", "test": "Confocal imaging, localization of probes in BV2 microglia", "type": "cell-based, mouse", "settings": "co-staining LysoTracker Red DND-99 / DAPI", "protocol": "BV2 mouse microglia cells were generously gifted by Dr. Linda J. Van Eldik (University of Kentucky, USA). The BV-2 cell line was developed in the lab of Dr. Elisabetta Blasi at the University of Perugia, Italy. Cells were maintained at 37° C. and 5% CO2 in DMEM/Hams F-12 50/50 Mix supplemented with 10% Fetal Bovine Serum (FBS), 1% L-Glutamine, and 1% Penicillin/Streptomycin. For imaging experiments, 70,000 cells/2 mL/well were seeded on glass coverslips (Corning #12-553-450) in 6-well plates (Corning #08-772-1B). For flow cytometry experiments, 20,000 cells/0.5 mL were seeded in 24-well plates (Corning #3526).\n(§1) The localization of the fluorescent probes was visualized using confocal microscopy. The cells were incubated with 10 μM probe for 2 hours and then the media was aspirated. The cells were then incubated with 100 nM LysoTracker (1 mM stock from Thermo #L7528) or with 0.5x MitoLite (1000-fold dilution from 500x stock of AAT Bioquest #22678) for 1.5 hours. The media was aspirated, and the cells were fixed with 4% paraformaldehyde for 10 mins followed by nuclear staining with 1 μM/mL DAPI for 5 mins. For BV2 microglia grown on glass coverslips, the coverslips were removed from the wells and transferred to glass slides with a drop of anti-fade reagent (Thermo Fisher Scientific #P36930). For primary mouse microglia grown in 35 mm glass-bottom dishes, the cells were treated with a few drops of the anti-fade reagent and taken for imaging. The images were captured on a Zeiss LSM 880 Upright Confocal microscope equipped with Plan-Apochromat 20x/0.8 objective."}, "BV2 microglia [5]": {"tested_on": "BV2 microglia", "test": "Cellular uptake of the fluorescent probes", "type": "in vitro ADME, mouse", "settings": "BV2 microglia (FIG. 7)", "protocol": "FIG. 7 describes percent uptake efficiency of the fluorescent probes in BV2 microglia. Cellular uptake of the probe at different concentrations after two hours of incubation. The % uptake efficiency was determined as the percentage of probe taken up by cells out of the total amount of probe in the initial incubation solution. Bars depict n=3 data with SD.\nCellular uptake of the florescent probes was determined in-vitro as following: BV2 cells (20,000 cells/well) were seeded in a 96 well plate and cultured overnight at 37° C. in a 5% CO2 incubator. Next day, the media was removed, and the cells were treated with 1, 5, or 10 μM of the probes for 2 hours. After incubation, the supernatant was collected, and the absorbance was recorded at the respective absorbance maxima of the probe. This was compared with absorbance of the probe in media without cells. The percent cellular uptake was calculated as percentage of […]:\n% Uptake Efficiency=1-[Asupernatant×100/Aprobe]"}, "primary mouse microglia [6]": {"tested_on": "primary mouse microglia", "test": "Confocal imaging, localization of probes in primary microglia", "type": "cell-based", "settings": "10 μM probe 2 hours, co-staining LysoTracker / MitoLite / DAPI", "protocol": "A detailed protocol for the isolation and culture of primary microglia from adult mouse brains is previously described^2. Briefly, CD11^+ primary microglia were isolated from adult C57BL/6 mice aged 5-7 months of age (both male and female sexes) and cultured as follows. Mice were euthanized with CO2 following the PACUC guidelines, perfused brains were removed and cut into small pieces before homogenizing them in DPBS++with 0.4% DNase-I on the tissue dissociator at 37° C. After filtering the cells through a 70 μm filter, myelin was removed two times, first using gradient centrifugation with Percoll PLUS reagent followed by the use of myelin removal beads on the magnetic column separators. After myelin removal, CD11^+ cells were selected from the single cell suspension using the CD11^+ beads as per the manufacturer's instructions. The CD11^+ cells were finally resuspended in microglia growth media, further diluted in TIC (TGF-β, IL-34, and cholesterol containing) media containing 2% FBS before seeding 0.1×10^6 cells/500 μL/well of a 24-well plate. The cells were maintained at 37° C. and 10% CO2 with half-media change every other day until the day of compound treatment (around 12-14 div). For confocal imaging experiments, around 50,000 cells/2 mL cells were sub-cultured at the center of 35 mm glass-bottom imaging dishes (FluoroDish™ #FD35).\nas §1, with “For primary mouse microglia grown in 35 mm glass-bottom dishes, the cells were treated with a few drops of the anti-fade reagent and taken for imaging. The images were captured on a Zeiss LSM 880 Upright Confocal microscope equipped with Plan-Apochromat 20x/0.8 objective.” left out"}, "primary mouse microglia [7]": {"tested_on": "primary mouse microglia", "test": "Flow cytometry analysis of probe fluorescence in live cells", "type": "cell-based", "settings": "10 μM, 2 hours", "excerpt": "FIGS. 3A-3E. […] Modal corresponds to a percentage of the maximum count. […] US Ctrl is unstained control. Gating strategy and flow plots with commercial dyes in supporting information.\nA detailed protocol for the isolation and culture of primary microglia from adult mouse brains is previously described^2. Briefly, CD11^+ primary microglia were isolated from adult C57BL/6 mice aged 5-7 months of age (both male and female sexes) and cultured as follows. Mice were euthanized with CO2 following the PACUC guidelines, perfused brains were removed and cut into small pieces before homogenizing them in DPBS++with 0.4% DNase-I on the tissue dissociator at 37° C. After filtering the cells through a 70 μm filter, myelin was removed two times, first using gradient centrifugation with Percoll PLUS reagent followed by the use of myelin removal beads on the magnetic column separators. After myelin removal, CD11^+ cells were selected from the single cell suspension using the CD11^+ beads as per the manufacturer's instructions. […]\nPrimary mouse microglia were treated with 1, 5, or 10 μM fluorescent probes for 2 hours for the cells to uptake the probe. […] Around 10-20 thousand cells were gated from the live cells in order to analyze the cellular fluorescence signal corresponding to the LysoShine/Lysotracker or Mitoshine/MitoLite probes."}}}
{"smiles": "CCOC(=O)C1=C(C)C2=C(c3ccc(N(C)C)cc3)c3c(C)c(C(=O)OCC)c(C)n3[B-](F)(F)[N+]2=C1C", "note": "[Compound 5, Diethyl 10-(4-(dimethylamino)phenyl)-5,5-difluoro-1,3,7,9-tetramethyl-5H-4λ^4, 5λ^4-dipyrrolo[1,2-c:2′,1′-f][1,3,2]diazaborinine-2,8-dicarboxylate]", "values": [{"measurement": "pH at which high fluorescence is shown", "setting": "[1]", "value": "≤ 2.0"}]}
{"smiles": "CCOC(=O)C1=C(C)C2=C(c3ccc(N(C)C)cc3)c3c(C)c(C(=O)OCC)c(C=Cc4ccc(O)cc4)n3[B-](F)(F)[N+]2=C1C", "note": "[Compound 6a, Diethyl (E)-10-(4-(dimethylamino)phenyl)-5,5-difluoro-3-(4-hydroxystyryl)-1,7,9-trimethyl-5H-414,514-dipyrrolo[1,2-c:2′,1′-f][1,3,2]diazaborinine-2,8-dicarboxylate]", "values": [{"measurement": "solubility in aqueous medium", "setting": "[2]; aqueous medium", "value": "sparingly soluble"}, {"measurement": "fluorescence spectrum in pH buffers", "setting": "[1]; pH buffers, solubility affected", "value": "did not generate a fluorescence spectrum"}]}
{"smiles": "CCOC(=O)C1=C(C)C2=C(c3ccc(NC(=O)CBr)cc3)c3c(C)c(C(=O)OCC)c(C)n3[B-](F)(F)[N+]2=C1C", "note": "[Compound 10, Diethyl 10-(4-(2-bromoacetamido)phenyl)-5,5-difluoro-1,3,7,9-tetramethyl-5H-414,514-dipyrrolo[1,2-c:2′,1′-f][1,3,2]diazaborinine-2,8-dicarboxylate]", "values": [{"measurement": "emission maximum", "setting": "[1]", "value": 510, "unit": "nm"}, {"measurement": "pH at which high fluorescence is shown", "setting": "[1]", "value": "less than 3"}, {"measurement": "absorption maximum", "setting": "[1]", "value": 505, "unit": "nm"}, {"measurement": "cytotoxicity to BV2 cells", "setting": "BV2 microglia [3]; BV2 cells", "value": "not cytotoxic"}, {"measurement": "localization of the probe within cell organelles", "setting": "BV2 microglia [4]", "value": "colocalized with nuclei staining dye DAPI"}, {"measurement": "cell permeability", "setting": "BV2 microglia [5]", "value": "cell permeable"}]}
{"smiles": "CCOC(=O)C1=C(C)C2=C(c3ccc(NC(=O)CN(CC)CC)cc3)c3c(C)c(C(=O)OCC)c(C)n3[B-](F)(F)[N+]2=C1C", "note": "[LysoShine 1, Diethyl 10-(4-(2-(diethylamino)acetamido)phenyl)-5,5-difluoro-1,3,7,9-tetramethyl-5H-4λ^4, 5λ^4-dipyrrolo[1,2-c:2′, 1′-f][1,3,2]diazaborinine-2,8-dicarboxylate]", "values": [{"measurement": "localization of the probe within cell organelles", "setting": "primary mouse microglia [6]", "value": "co-localized with the LysoTracker dye within the acidic lysosomes"}, {"measurement": "solubility upon addition of pH solutions", "setting": "[2]", "value": "maintains its solubility"}, {"measurement": "pKa", "setting": "[1]", "value": 5.4}, {"measurement": "emission maximum", "setting": "[1]", "value": 505, "unit": "nm"}, {"measurement": "pH at which high fluorescence is shown", "setting": "[1]", "value": 4}, {"measurement": "absorption maximum", "setting": "[1]", "value": "around 500 nm"}, {"measurement": "fluorescent intensity within the cells", "setting": "primary mouse microglia [7]", "value": "higher fluorescent intensity than LysoShine 2"}, {"measurement": "cytotoxicity (LDH release)", "setting": "BV2 microglia [3]", "value": "did not show any cytotoxicity"}, {"measurement": "localization of the probe within cell organelles", "setting": "BV2 microglia [4]", "value": "co-colocalization"}]}
{"smiles": "CCOC(=O)C1=C(C)C2=C(c3ccc(NC(=O)CNCCN4CCOCC4)cc3)c3c(C)c(C(=O)OCC)c(C)n3[B-](F)(F)[N+]2=C1C", "note": "[LysoShine 2, Diethyl 5,5-difluoro-1,3,7,9-tetramethyl-10-(4-(2-((2-morpholinoethyl)amino)acetamido)phenyl)-5H-4λ^4, 5λ^4-dipyrrolo[1,2-c:2′,1′-f][1,3,2]diaza-borinine-2,8-dicarboxylate]", "values": [{"measurement": "localization of the probe within cell organelles", "setting": "primary mouse microglia [6]", "value": "co-localized with the LysoTracker dye within the acidic lysosomes"}, {"measurement": "solubility upon addition of pH solutions", "setting": "[2]", "value": "maintains its solubility"}, {"measurement": "pKa", "setting": "[1]", "value": 6.0}, {"measurement": "emission maximum", "setting": "[1]", "value": 512, "unit": "nm"}, {"measurement": "pH at which high fluorescence is shown", "setting": "[1]", "value": "less than 6"}, {"measurement": "absorption maximum", "setting": "[1]", "value": 500, "unit": "nm"}, {"measurement": "cytotoxicity (LDH release)", "setting": "BV2 microglia [3]", "value": "did not show any cytotoxicity"}, {"measurement": "localization of the probe within cell organelles", "setting": "BV2 microglia [4]", "value": "co-colocalization"}]}
